# Tests used:
# Format in all cases: cell-based
# [1] = system: HL-60 cells; assay: Proliferation, [3H]-thymidine uptake, HL-60; conditions: for mean percentage of proliferation ± SE: 72 h, relative to control
# Method: (§1) Acute myeloid leukemia cell line HL-60 and multiple myeloma cell lines AMO-1 and KMS-12-PE were obtained from the German Collection of Microorganisms and Cell Cultures (DSMZ), Braunschweig, Germany, and non-tumorigenic stromal cell line HS-5 was acquired from the American Type Culture Collection (ATCC, Manassas, VA, USA). All cell lines were cultured in RPMI 1640 medium without phenol red (Pan Biotech, Aidenbach, Germany), supplemented with 2 mM glutamine, 100 U/mL penicillin, 100 µg/mL streptomycin (Sigma-Aldrich, St. Louis, MO, USA), and 10% fetal bovine serum (FBS Maximus, Catus Biotech GmbH, Tutzing, Germany) at 37 °C in a humidified atmosphere of 5% CO2/95% air. Cells were fed twice weekly. Logarithmically growing cells were resuspended at 1 × 10^5 cells/mL, plated in triplicate in round-bottom 96-well plates (100 µL per well; Falcon, Becton Dickinson, Franklin Lakes, NJ, USA), and incubated at 37 °C in 5% CO2/95% air for 2 h. Subsequently, the compounds were adjusted in the cell culture medium to reach the final concentrations in a total volume of 150 µL and incubated for an additional 72 h. Cell proliferation was assessed by [^3H]-thymidine uptake. Each well was exposed to 2 µCi [^3H]-thymidine (Hartmann Analytic, Braunschweig, Germany) during the final 12–16 h of incubation. Cells were harvested using a semi-automated device, and [^3H]-thymidine incorporation (expressed in counts per minute, cpm) was measured with a scintillation counter (MicroBeta TriLux, PerkinElmer, Waltham, MA, USA). Metabolic activity was assessed by resazurin staining. Resazurin (Carl Roth, Karlsruhe, Germany) was dissolved in distilled water at a concentration of 0.1 mg/mL, and 15 µL of this solution was added to each well, followed by a 2 h incubation at 37 °C. Relative fluorescence units (RFUs) were measured using a Synergy H1 plate reader equipped with a 560 nm excitation/590 nm emission filter set (BioTek; Agilent, Santa Clara, CA, USA). Proliferation and metabolic activity in the absence of compounds were defined as 100% (control), and the values for compound-treated samples were expressed as percentages relative to the control. Selectivity indices were calculated by dividing the IC50 value of each compound against HS-5 cells through the IC50 values against the investigated cell lines.
# (§2) The Wilcoxon Rank Sum Test was used to analyze proliferation and metabolic activity in the absence and presence of varying compound concentrations (NCSS 2007 software, version 07.1.2, Kaysville, UT, USA). A p-value < 0.05 was considered statistically significant. IC50 values were calculated using GraphPad Prism 10.1.2. This software reports 95% confidence intervals instead of standard errors. […] Nonetheless, the figures clearly illustrate the IC50 values due to the narrow concentration range tested.
# [2] = system: MOLM-13 cells; assay: Proliferation, [3H]-thymidine uptake, MOLM-13; conditions: for mean percentage of proliferation ± SE: 72 h, relative to control
# Method: [The source words this procedure for another cell line and reports this cell line under the same test.] as §1, §2
# [3] = system: AMO-1 cells; assay: Proliferation, [3H]-thymidine uptake, AMO-1; conditions: 72 h, relative to control
# Method: as §1, §2
# [4] = system: KMS-12-PE cells; assay: Proliferation, [3H]-thymidine uptake, KMS-12-PE; conditions: KMS-12 PE, 72 h, relative to control
# Method: as §1, §2
# [5] = system: HL-60 cells; assay: Metabolic activity, resazurin staining, HL-60; conditions: for Metabolic activity, mean percentage ± SE: 72 h, relative to control
# Method: as §1, §2
# (§3) Proliferation inhibition often leads to cell death. Therefore, the cytotoxic activity of the compounds was further evaluated using a modified 3-(4,5-dimethylthiazol-2-yl)-2,5-diphenyltetrazolium bromide (MTT) assay, the resazurin (Alamar Blue) assay. Metabolically active cells reduce the non-fluorescent dye resazurin to the fluorescent dye resorufin via mitochondrial reductase activity, which correlates with cell viability. In the first step the metabolic activity of the four isolated flavonoids was investigated, showing a dose-dependent reduction, but to a much lower extent than in the proliferation assays (Table A2). In fact, only 7,3′,4′-trimethoxymyricetin (2) inhibited the metabolic activity of all four cell lines by more than 50% at a concentration of 100 µM.
# [6] = system: MOLM-13 cells; assay: Metabolic activity, resazurin staining, MOLM-13; conditions: for Metabolic activity, mean percentage ± SE: 72 h, relative to control
# Method: [The source words this procedure for another cell line and reports this cell line under the same test.] as §1, §2, §3
# [7] = system: AMO-1 cells; assay: Metabolic activity, resazurin staining, AMO-1; conditions: for Metabolic activity, mean percentage ± SE: 72 h, relative to control
# Method: as §1, §2, §3
# [8] = system: KMS-12-PE cells; assay: Metabolic activity, resazurin staining, KMS-12-PE; conditions: KMS-12 PE; for Metabolic activity, mean percentage ± SE: 72 h, relative to control
# Method: as §1, §2, §3
Compound,"mean percentage of proliferation ± SE ([1]; HL-60, 50 µM) [%]","mean percentage of proliferation ± SE ([1]; HL-60, 100 µM) [%]","mean percentage of proliferation ± SE ([2]; MOLM-13, 50 µM) [%]","mean percentage of proliferation ± SE ([2]; MOLM-13, 100 µM) [%]","mean percentage of proliferation ± SE ([3]; AMO-1, 50 µM) [%]","mean percentage of proliferation ± SE ([3]; AMO-1, 100 µM) [%]",mean percentage of proliferation ± SE ([4]; 50 µM) [%],mean percentage of proliferation ± SE ([4]; 100 µM) [%],"Metabolic activity, mean percentage ± SE ([5]; HL-60, 50 µM) [%]","Metabolic activity, mean percentage ± SE ([5]; HL-60, 100 µM) [%]","Metabolic activity, mean percentage ± SE ([6]; MOLM-13, 50 µM) [%]","Metabolic activity, mean percentage ± SE ([6]; MOLM-13, 100 µM) [%]","Metabolic activity, mean percentage ± SE ([7]; AMO-1, 50 µM) [%]","Metabolic activity, mean percentage ± SE ([7]; AMO-1, 100 µM) [%]","Metabolic activity, mean percentage ± SE ([8]; 50 µM) [%]","Metabolic activity, mean percentage ± SE ([8]; 100 µM) [%]","mean percentage of proliferation ± SE ([1]; HL-60, 25 µM) [%]","mean percentage of proliferation ± SE ([2]; MOLM-13, 25 µM) [%]","mean percentage of proliferation ± SE ([3]; AMO-1, 25 µM) [%]",mean percentage of proliferation ± SE ([4]; 25 µM) [%],further results
"COc1cc(O)c2c(=O)c(OC)c(-c3ccc(OC)c(OC)c3)oc2c1 [Compound 1, retusin]",76.0 ± 3.0,65.6 ± 3.1,76.9 ± 4.7,57.8 ± 6.8,73.5 ± 7.5,66.9 ± 7.8,85.2 ± 1.8,73.0 ± 1.9,93.0 ± 4.4,85.9 ± 1.8,88.5 ± 3.8,80.5 ± 2.6,91.4 ± 8.9,81.0 ± 4.2,100.9 ± 4.1,95.1 ± 4.5,,,,,
"COc1cc(O)c2c(=O)c(O)c(-c3cc(O)c(OC)c(OC)c3)oc2c1 [Compound 2, 7,3′,4′-trimetoxymyricetin]",36.7 ± 2.5,2.5 ± 0.5,35.4 ± 4.2,3.8 ± 1.0,27.0 ± 4.0,4.8 ± 1.0,16.1 ± 0.9,2.6 ± 0.4,79.6 ± 7.0,32.1 ± 2.8,65.4 ± 3.6,48.9 ± 5.5,68.9 ± 4.1,41.8 ± 6.4,62.7 ± 2.6,44.5 ± 4.0,69.8 ± 2.5,77.8 ± 9.6,69.2 ± 5.3,64.5 ± 2.9,"Metabolic activity, mean percentage ± SE ([5]; HL-60, 25 µM): 93.2 ± 7.8%; inhibition at 100 µM ([5]; Homo sapiens, HL-60, 100 µM): > 50%; inhibition at 100 µM ([6]; Homo sapiens, MOLM-13, 100 µM): > 50%; Metabolic activity, mean percentage ± SE ([6]; MOLM-13, 25 µM): 77.8 ± 2.1 %; Metabolic activity, mean percentage ± SE ([7]; AMO-1, 25 µM): 81.3 ± 6.3 %; inhibition at 100 µM ([7]; Homo sapiens, AMO1, AMO-1, 100 µM): > 50%; inhibition at 100 µM ([8]; Homo sapiens, 100 µM): > 50%; Metabolic activity, mean percentage ± SE ([8]; 25 µM): 87.9 ± 2.6 %"
"COc1ccc(-c2cc(=O)c3c(O)cc(O)cc3o2)cc1O [Compound 3, diosmetin]",59.9 ± 3.6,19.7 ± 3.7,11.7 ± 1.6,1.1 ± 0.4,42.0 ± 5.0,9.0 ± 0.8,38.2 ± 4.1,16.4 ± 2.4,84.5 ± 2.2,56.7 ± 3.5,51.2 ± 7.2,41.2 ± 5.0,76.8 ± 3.7,54.5 ± 5.5,81.3 ± 3.2,57.2 ± 4.7,71.4 ± 1.5,36.5 ± 2.9,65.9 ± 9.4,74.5 ± 6.9,"Metabolic activity, mean percentage ± SE ([5]; HL-60, 25 µM): 93.2 ± 3.1 %; Metabolic activity, mean percentage ± SE ([6]; MOLM-13, 25 µM): 62.5 ± 10.1 %; inhibition of metabolic activity ([6]; MOLM-13, 100 µM): induced antimetabolic activity; Metabolic activity, mean percentage ± SE ([7]; AMO-1, 25 µM): 95.4 ± 2.4 %; Metabolic activity, mean percentage ± SE ([8]; 25 µM): 93.7 ± 4.9%"
"COc1cc(O)c2c(=O)c(OC)c(-c3ccc(O)c(O)c3)oc2c1 [Compound 4, 3,7-di-O-methylquercetin]",23.3 ± 6.5,18.5 ± 4.0,13.1 ± 2.7,8.8 ± 3.1,29.7 ± 4.1,19.2 ± 5.1,50.4 ± 5.2,29.7 ± 6.0,69.8 ± 5.1,69.7 ± 5.5,63.6 ± 6.4,61.7 ± 6.9,57.1 ± 10.5,46.9 ± 11.7,92.4 ± 8.7,82.4 ± 7.7,37.6 ± 7.7,32.6 ± 5.5,57.5 ± 9.2,80.9 ± 3.2,"mean percentage of proliferation ± SE ([1]; HL-60, 10 µM): 45.9 ± 8.9 %; inhibition at 10 µM ([1]; Homo sapiens, HL-60, 10 µM): > 50%; inhibition at 10 µM ([2]; Homo sapiens, MOLM-13, 10 µM): > 50%; mean percentage of proliferation ± SE ([2]; MOLM-13, 10 µM): 42.3 ± 11.2 %; mean percentage of proliferation ± SE ([3]; AMO-1, 10 µM): 73.3 ± 11.4 %; mean percentage of proliferation ± SE ([4]; 10 µM): 89.0 ± 5.2%; Metabolic activity, mean percentage ± SE ([5]; HL-60, 10 µM): 86.1 ± 6.1 %; Metabolic activity, mean percentage ± SE ([5]; HL-60, 25 µM): 80.8 ± 5.9 %; Metabolic activity, mean percentage ± SE ([6]; MOLM-13, 10 µM): 81.1 ± 4.2 %; Metabolic activity, mean percentage ± SE ([6]; MOLM-13, 25 µM): 77.9 ± 4.3 %; Metabolic activity, mean percentage ± SE ([7]; AMO-1, 10 µM): 91.5 ± 9.9%; Metabolic activity, mean percentage ± SE ([7]; AMO-1, 25 µM): 70.2 ± 10.8 %; inhibition of metabolic activity ([7]; AMO-1, 100 µM): induced antimetabolic activity; Metabolic activity, mean percentage ± SE ([8]; 10 µM): 110.1 ± 10.2%; Metabolic activity, mean percentage ± SE ([8]; 25 µM): 103.0 ± 9.9%"
